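Five concentrations, 48 hours, 96-well plates. Here, GI50 denotes the concentration required for 50% inhibition of growth.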 Calls of active or inactive are those of the source. Cut-off read from the data, not from the text of the source: active = GI50 up to about 1.1 µM and inactive = higher.
What was measured:
Assay in all cases: DTP human tumour cell line panel, 48 h
HOP-92 = tested on: HOP-92
SK-MEL-5 = tested on: SK-MEL-5
NCI-H522 = tested on: NCI-H522
CCRF-CEM = tested on: CCRF-CEM
OVCAR-3 = tested on: OVCAR-3
A549 = tested on: A549
TK-10 = tested on: TK-10
SN12C = tested on: SN12C
LXFL 529 = tested on: LXFL 529
SW-620 = tested on: SW-620
HCT-116 = tested on: HCT-116
IGROV-1 = tested on: IGROV-1
SR = tested on: SR
COLO 205 = tested on: COLO 205
RPMI-8226 = tested on: RPMI-8226
SF-539 = tested on: SF-539
MOLT-4 = tested on: MOLT-4
SK-OV-3 = tested on: SK-OV-3

| Compound | GI50 (HOP-92) | GI50 (SK-MEL-5) | GI50 (NCI-H522) | GI50 (CCRF-CEM) | GI50 (OVCAR-3) | GI50 (A549) | GI50 (TK-10) | GI50 (SN12C) | GI50 (LXFL 529) | GI50 (SW-620) | GI50 (HCT-116) | GI50 (IGROV-1) | GI50 (SR) | GI50 (COLO 205) | GI50 (RPMI-8226) | GI50 (SF-539) | GI50 (MOLT-4) | GI50 (SK-OV-3) |
| --- | --- | --- | --- | --- | --- | --- | --- | --- | --- | --- | --- | --- | --- | --- | --- | --- | --- | --- |
| COc1ccc2nccc(C3OC(=O)N4CCC(=O)CC34)c2c1 (centres undefined) | 67.1 µM (inactive) | > 100 µM (inactive) | 6.84 µM (inactive) | > 100 µM (inactive) | > 100 µM (inactive) | > 100 µM (inactive) | > 100 µM (inactive) | > 100 µM (inactive) | > 100 µM (inactive) | > 100 µM (inactive) | > 100 µM (inactive) | > 100 µM (inactive) | > 100 µM (inactive) | > 100 µM (inactive) | > 100 µM (inactive) | > 100 µM (inactive) | > 100 µM (inactive) |  |
| CC(=O)OC1CCn2nnc(COC(=O)NC(C)C)c21 (centres undefined) | > 100 µM (inactive) | > 100 µM (inactive) | > 100 µM (inactive) |  | > 100 µM (inactive) | > 100 µM (inactive) | > 100 µM (inactive) | > 100 µM (inactive) | > 100 µM (inactive) | > 100 µM (inactive) | > 100 µM (inactive) | > 100 µM (inactive) | > 100 µM (inactive) |  | > 100 µM (inactive) | > 100 µM (inactive) | > 100 µM (inactive) | > 100 µM (inactive) |
| CC[P+](C)(C)CC | > 100 µM (inactive) | > 100 µM (inactive) |  | > 100 µM (inactive) | > 100 µM (inactive) | > 100 µM (inactive) | > 100 µM (inactive) | > 100 µM (inactive) | > 100 µM (inactive) | > 100 µM (inactive) | > 100 µM (inactive) | > 100 µM (inactive) | > 100 µM (inactive) | > 100 µM (inactive) | > 100 µM (inactive) | > 100 µM (inactive) | > 100 µM (inactive) | > 100 µM (inactive) |
| Nc1nc(CCC(=O)Nc2cccc(C(F)(F)F)c2)cc(-c2cccc3ccccc23)n1 |  | > 100 µM (inactive) | > 100 µM (inactive) | > 100 µM (inactive) | > 100 µM (inactive) | > 100 µM (inactive) | > 100 µM (inactive) | > 100 µM (inactive) | > 100 µM (inactive) | > 100 µM (inactive) | > 100 µM (inactive) | > 100 µM (inactive) | > 100 µM (inactive) | > 100 µM (inactive) |  | > 100 µM (inactive) | > 100 µM (inactive) | > 100 µM (inactive) |
| CC(C)=C1CCC(CN2CCCC2)C1=O (centres undefined) | 24.6 µM (inactive) | > 100 µM (inactive) |  | 17.7 µM (inactive) | 17.4 µM (inactive) | > 100 µM (inactive) | 27.5 µM (inactive) | 17.6 µM (inactive) | 18 µM (inactive) | 22.1 µM (inactive) | 17.7 µM (inactive) | 75.2 µM (inactive) | 15.8 µM (inactive) |  | 11.8 µM (inactive) | 53.7 µM (inactive) | 21.9 µM (inactive) |  |
| O=C(/C=C\c1ccc(Cl)c(Cl)c1)c1ccc(Cl)cc1Cl | > 10 µM (inactive) | 14.9 µM (inactive) | 15.9 µM (inactive) | 4.1 µM (inactive) | 18.2 µM (inactive) | 22.6 µM (inactive) | > 10 µM (inactive) | 24.9 µM (inactive) | 2.26 µM (inactive) | 2.69 µM (inactive) | 9.14 µM (inactive) | 18 µM (inactive) | 3.09 µM (inactive) | > 10 µM (inactive) | 3.18 µM (inactive) | 20 µM (inactive) | 2.99 µM (inactive) | 19.9 µM (inactive) |
| C[C@H](C(=O)C12CC3CC(CC(C3)C1)C2)[C@H](O)c1ccccc1 | 21.9 µM (inactive) | 17.6 µM (inactive) | 22 µM (inactive) | 32.5 µM (inactive) | 22.4 µM (inactive) | 40.7 µM (inactive) | 36.1 µM (inactive) | 19.5 µM (inactive) | 43.8 µM (inactive) | 47.9 µM (inactive) | 16.1 µM (inactive) | 40 µM (inactive) | 29.4 µM (inactive) | 15 µM (inactive) | 36 µM (inactive) | 33.3 µM (inactive) | 23.9 µM (inactive) | 83.9 µM (inactive) |
| Cc1cn(C2CC(O)C(CO)O2)c(=O)n2nnnc12 (centres undefined) | > 100 µM (inactive) | > 100 µM (inactive) | > 100 µM (inactive) | > 100 µM (inactive) | > 100 µM (inactive) | > 100 µM (inactive) | > 100 µM (inactive) |  | > 100 µM (inactive) | > 100 µM (inactive) | > 100 µM (inactive) | > 100 µM (inactive) | > 100 µM (inactive) | > 100 µM (inactive) | > 100 µM (inactive) | > 100 µM (inactive) | > 100 µM (inactive) | > 100 µM (inactive) |
| CC(=O)O[C@H]1CC[C@@]2(C)C(CC[C@]3(C)C2CC[C@]2(C)Oc4c(C)cc(O)cc4C[C@@H]23)C1(C)C (some centres undefined) | 6.85 µM (inactive) | 5.87 µM (inactive) | 5.46 µM (inactive) | 3.79 µM (inactive) | 11.7 µM (inactive) | 5.22 µM (inactive) | 13.2 µM (inactive) | > 10 µM (inactive) | 3.65 µM (inactive) | 1.88 µM (inactive) | 5.27 µM (inactive) | 13.5 µM (inactive) | 2.67 µM (inactive) | 14.5 µM (inactive) | 2.5 µM (inactive) |  | 2.84 µM (inactive) | 7.08 µM (inactive) |
| O=C(O)/C(=C/c1ccccc1[N+](=O)[O-])c1cccs1 |  | > 100 µM (inactive) | > 100 µM (inactive) |  | > 100 µM (inactive) | > 100 µM (inactive) | > 100 µM (inactive) | > 100 µM (inactive) | > 100 µM (inactive) | > 100 µM (inactive) | > 100 µM (inactive) | > 100 µM (inactive) | > 100 µM (inactive) | > 100 µM (inactive) | > 100 µM (inactive) | > 100 µM (inactive) | > 100 µM (inactive) | > 100 µM (inactive) |
| CC12CC(Sc3ccccc3N1)c1ccccc1O2 (centres undefined) | 18.7 µM (inactive) | 14.8 µM (inactive) |  | 12.1 µM (inactive) | 16.4 µM (inactive) | 18.8 µM (inactive) | 28.9 µM (inactive) | 18.8 µM (inactive) | 15.2 µM (inactive) | 17.7 µM (inactive) | 15.2 µM (inactive) | 21.9 µM (inactive) | 13.6 µM (inactive) | 16.2 µM (inactive) | 13.6 µM (inactive) | 17.5 µM (inactive) | 16.6 µM (inactive) | 33.7 µM (inactive) |
| O=C1/C=C(/c2ccc(O)cc2)[C@@H](OC2OC(CO)C(O)C(O)C2O)Cc2ccc(O)cc2O1.O=C1/C=C(/c2ccc(O)cc2)[C@H](O)Cc2ccc(O[C@@H]3OC(CO)C(O)C(O)C3O)cc2O1 (some centres undefined) |  | > 100 µM (inactive) | > 100 µM (inactive) |  | > 100 µM (inactive) | > 100 µM (inactive) | > 100 µM (inactive) | > 100 µM (inactive) | > 100 µM (inactive) | > 100 µM (inactive) | > 100 µM (inactive) | > 100 µM (inactive) | 1 µM (active) | > 100 µM (inactive) | 25.2 µM (inactive) | > 100 µM (inactive) |  | > 100 µM (inactive) |

— ChEMBL document CHEMBL1201862, “PubChem BioAssay data set” (2004)
